Measured values as given in the supplement of paper PMC10307832.

Experiments:
Assay in all cases: relative viability (nuclei count vs DMSO), 5 days (fraction); higher = more cells survive
[1] = compound: CC(O)(CS(=O)(=O)c1ccc(F)cc1)C(=O)Nc1ccc(C#N)c(C(F)(F)F)c1 [Bicalutamide] + C[C@]1(O)C[C@@H](c2nc(-c3ccc4ccc(-c5ccccc5)nc4c3)c3c(N)nccn32)C1 [Linsitinib] (partner 1 µM)
Method in brief: (§1)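 Lung cancer cell lines in 1536-well plates were dosed by pin tool the day after seeding, either with one drug alone or with a fixed anchor-drug dose plus five library-drug doses (not always all listed) in √10 steps. After 5 days, cells were fixed and their nuclei stained in one step (final 0.05% Triton X-100, 1% formaldehyde, 1 ug/ml Hoechst), then counted on 4× images. Relative viability is the nuclei count in treated wells divided by that in vehicle wells. Values are medians of duplicate plates.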

Bicalutamide + Olaparib = compound: CC(O)(CS(=O)(=O)c1ccc(F)cc1)C(=O)Nc1ccc(C#N)c(C(F)(F)F)c1 [Bicalutamide] + O=C(c1cc(Cc2n[nH]c(=O)c3ccccc23)ccc1F)N1CCN(C(=O)C2CC2)CC1 [Olaparib] (partner 8 µM)
Method in brief: as §1

[2] = compound: C(C(=O)C(=O)O)Br [Bromopyruvate] + Nc1ncn([C@H]2C[C@H](O)[C@@H](CO)O2)c(=O)n1 [Decitabine] (partner 2 µM)
Method in brief: as §1

[3] = compound: CC(O)(CS(=O)(=O)c1ccc(F)cc1)C(=O)Nc1ccc(C#N)c(C(F)(F)F)c1 [Bicalutamide] + O=C(CCCCCCC(=O)Nc1ccccc1)NO [Vorinostat] (partner 1 µM)
Method in brief: as §1

UMC-11
relative viability ([1]; first compound 0.08 µM): 1.1
relative viability ([1]; first compound 0.253 µM): 0.662
relative viability ([1]; first compound 0.8 µM): 1.08
relative viability ([1]; first compound 2.53 µM): 0.955
relative viability (Bicalutamide + Olaparib; first compound 0.08 µM): 0.386
relative viability (Bicalutamide + Olaparib; first compound 0.253 µM): 0.347
relative viability (Bicalutamide + Olaparib; first compound 0.8 µM): 0.406
relative viability (Bicalutamide + Olaparib; first compound 2.53 µM): 0.522
relative viability ([2]; first compound 1 µM): 0.596
relative viability ([2]; first compound 3.162 µM): 0.574
relative viability ([2]; first compound 10 µM): 0.815
relative viability ([2]; first compound 31.62 µM): 0.617
relative viability ([2]; first compound 100 µM): 0.708
relative viability ([3]; first compound 0.08 µM): 0.436
relative viability ([3]; first compound 0.253 µM): 0.387
relative viability ([3]; first compound 0.8 µM): 0.403
relative viability ([3]; first compound 2.53 µM): 0.264
